Results published in ChEMBL document CHEMBL1201862, “PubChem BioAssay data set” (2004).
Values joined by “and” are separate entries in the source; they are usually repeats but may differ in a detail not shown here. Identical values can stand only once.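 Results reflect a 48-hour exposure of cells in 96-well plates to compound at five concentrations. At the GI50, growth is halved.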 Active and inactive are the calls of the source. Rule as the data show it: active = GI50 up to about 1.1 µM and inactive = higher.

What was measured:
Experiment in all cases: growth of human tumour cells (NCI), 48 h
[1] = system: A498
[2] = system: ACHN
[3] = system: CCRF-CEM
[4] = system: HCC 2998
[5] = system: HCT-15
[6] = system: HL-60
[7] = system: HT-29
[8] = system: IGROV-1
[9] = system: K562
[10] = system: LOX IMVI
[11] = system: M14
[12] = system: NCI-H460
[13] = system: NCI-H522
[14] = system: OVCAR-3
[15] = system: OVCAR-5
[16] = system: OVCAR-8
[17] = system: RXF 393
[18] = system: SF-268
[19] = system: SF-295
[20] = system: SK-MEL-28
[21] = system: SK-MEL-5
[22] = system: SK-OV-3
[23] = system: SN12C
[24] = system: SNB-19
[25] = system: SNB-75
[26] = system: SR
[27] = system: SW-620
[28] = system: TK-10
[29] = system: U-251
[30] = system: UACC-257
[31] = system: UACC-62
[32] = system: UO-31
[33] = system: 786-0
[34] = system: COLO 205
[35] = system: DU-145
[36] = system: EKVX
[37] = system: MDA-N
[38] = system: NCI-H226
[39] = system: NCI-H23
[40] = system: NCI/ADR-RES
[41] = system: OVCAR-4
[42] = system: PC-3
[43] = system: SF-539
[44] = system: T47D

With O=C(N/N=C/c1cc(Cl)cc(Cl)c1O)c1ccccc1O the GI50 [1] was 7500 nM (inactive), the GI50 [2] was 447 nM (active) and the GI50 [3] was 279 nM (active). For the same compound, the GI50 [4] was 2170 nM (inactive), the GI50 [5] was 460 nM and the GI50 [6] was 221 nM (active). For the same compound, the GI50 [7] was 3650 nM (inactive), the GI50 [8] was 2620 nM (inactive) and the GI50 [9] was 977 nM (active). The GI50 [10] was 398 nM (active), the GI50 [11] was 847 nM (active) and the GI50 [12] was 656 nM (active). The GI50 [13] was 441 nM (active), the GI50 [14] was 305 nM (active) and the GI50 [15] was 2080 nM (inactive). For the same compound, the GI50 [16] was 198 nM (active), the GI50 [17] was 946 nM (active) and the GI50 [18] was 480 nM (active). The GI50 [19] was 721 nM (active), the GI50 [20] was 1310 nM (inactive) and the GI50 [21] was 1570 nM (inactive). For the same compound, the GI50 [22] was 687 nM (active), the GI50 [23] was 2360 nM (inactive) and the GI50 [24] was 3180 nM (inactive). The GI50 [25] was 2440 nM (inactive), the GI50 [26] was 388 nM (active) and the GI50 [27] was 601 nM (active). For the same compound, the GI50 [28] was 2230 nM (inactive), the GI50 [29] was 849 nM (active) and the GI50 [30] was 2.04 µM (inactive). The GI50 [31] was 323 nM (active) and the GI50 [32] was 2880 nM (inactive).
For CC(C)(C)OC(=O)C1C(=O)NC(=O)CC1C(OCc1ccccc1)C(OCc1ccccc1)C(COCc1ccccc1)OCc1ccccc1 (configuration not stated), the GI50 [33] was > 100000 nM (inactive), the GI50 [1] was > 75000 nM (inactive) and the GI50 [2] was > 75000 nM (inactive). The GI50 [34] was 58200 nM (inactive), the GI50 [35] was > 75000 nM (inactive) and the GI50 [36] was > 100000 nM (inactive). The GI50 [4] was > 100000 nM (inactive), the GI50 [5] was > 100000 nM and the GI50 [7] was 16600 nM (inactive). For the same compound, the GI50 [8] was > 100000 nM (inactive), the GI50 [9] was 65.8 µM (inactive) and 88.3 µM (inactive) and the GI50 [11] was > 100 µM (inactive) and 71.8 µM (inactive). The GI50 [37] was > 100000 nM (inactive), the GI50 [38] was > 100 µM (inactive) and 61.9 µM (inactive) and the GI50 [39] was > 100000 nM (inactive). The GI50 [40] was > 100 µM (inactive) and 58.6 µM (inactive), the GI50 [41] was 50600 nM (inactive) and the GI50 [15] was > 100000 nM (inactive). For the same compound, the GI50 [16] was > 100 µM (inactive) and 52.5 µM (inactive), the GI50 [42] was > 100 µM (inactive) and 69.2 µM (inactive) and the GI50 [18] was 74 µM (inactive) and 71.4 µM (inactive). The GI50 [19] was 50600 nM (inactive), the GI50 [43] was > 100000 nM (inactive) and the GI50 [20] was > 100000 nM (inactive). For the same compound, the GI50 [23] was > 100000 nM (inactive), the GI50 [24] was > 100000 nM (inactive) and the GI50 [27] was > 100000 nM (inactive). The GI50 [44] was 2140 nM (inactive), the GI50 [28] was > 100000 nM (inactive) and the GI50 [30] was > 100 µM (inactive) and 58.7 µM (inactive).
